Measured values published in ChEMBL document CHEMBL1201862, “PubChem BioAssay data set” (2004).
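These data come from cells grown in 96-well plates and exposed to compound for 48 hours at five concentrations. The concentration for 50% growth inhibition is given as GI50.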 Calls of active or inactive are those of the source. No stated cut-off is given here; in the data, active = GI50 up to about 1.1 µM and inactive = higher.

Tests used:
Assay in all cases: NCI anticancer screen, dose series, 48 h
[1] = system: 786-0
[2] = system: EKVX
[3] = system: HCC 2998
[4] = system: HCT-15
[5] = system: HT-29
[6] = system: KM12
[7] = system: LOX IMVI
[8] = system: MDA-MB-231
[9] = system: MDA-MB-435
[10] = system: MOLT-4
[11] = system: RXF 393
[12] = system: SK-MEL-28
[13] = system: SR
[14] = system: SW-620
[15] = system: U-251
[16] = system: UACC-62
[17] = system: UO-31
[18] = system: HL-60
[19] = system: SK-MEL-2
[20] = system: SK-OV-3

Row | SMILES | GI50 [1] | GI50 [2] | GI50 [3] | GI50 [4] | GI50 [5] | GI50 [6] | GI50 [7] | GI50 [8] | GI50 [9] | GI50 [10] | GI50 [11] | GI50 [12] | GI50 [13] | GI50 [14] | GI50 [15] | GI50 [16] | GI50 [17] | GI50 [18] | GI50 [19] | GI50 [20]
1 | Oc1cc(CF)nc(S)n1 | > 100 µM (inactive) | > 100 µM (inactive) | > 100 µM (inactive) | > 100 µM | > 100 µM (inactive) | > 100 µM (inactive) | > 100 µM (inactive) | > 100 µM (inactive) | > 100 µM (inactive) | > 100 µM (inactive) | > 100 µM (inactive) | > 100 µM (inactive) | > 100 µM (inactive) | > 100 µM (inactive) | > 100 µM (inactive) | > 100 µM (inactive) | > 100 µM (inactive) | – | – | –
2 | OCC1OC(NC(=S)NCCC(F)(F)C(F)(F)C(F)(F)C(F)(F)C(F)(F)C(F)(F)F)C(O)C(O)C1O (stereo not given) | > 100 µM (inactive) | – | > 100 µM (inactive) | > 100 µM | > 100 µM (inactive) | > 100 µM (inactive) | 49.5 µM (inactive) | > 100 µM (inactive) | 58.6 µM (inactive) | 21.6 µM (inactive) | 75.3 µM (inactive) | 72.9 µM (inactive) | > 100 µM (inactive) | > 100 µM (inactive) | 37.3 µM (inactive) | 67.9 µM (inactive) | > 100 µM (inactive) | > 100 µM (inactive) | > 100 µM (inactive) | > 100 µM (inactive)
3 | COc1cc(C2SCC(=O)N2c2ccccn2)cc(OC)c1OC (stereo not given) | > 100 µM (inactive) | > 100 µM (inactive) | > 100 µM (inactive) | 55.5 µM | > 100 µM (inactive) | 62.1 µM (inactive) | > 100 µM (inactive) | > 100 µM (inactive) | 27 µM (inactive) | > 100 µM (inactive) | – | > 100 µM (inactive) | 31.6 µM (inactive) | 76 µM (inactive) | > 100 µM (inactive) | 87.5 µM (inactive) | > 100 µM (inactive) | 58.7 µM (inactive) | > 100 µM (inactive) | > 100 µM (inactive)
4 | CN(C)c1c(C2OC(CO)C(O)C2O)c(=O)c1=O (stereo not given) | > 100 µM (inactive) | > 100 µM (inactive) | > 100 µM (inactive) | > 100 µM | > 100 µM (inactive) | > 100 µM (inactive) | > 100 µM (inactive) | > 100 µM (inactive) | > 100 µM (inactive) | > 100 µM (inactive) | > 100 µM (inactive) | > 100 µM (inactive) | > 100 µM (inactive) | > 100 µM (inactive) | > 100 µM (inactive) | > 100 µM (inactive) | > 100 µM (inactive) | – | > 100 µM (inactive) | > 100 µM (inactive)
5 | N#CCC1C2CC3C(C2=O)C13 (stereo not given) | > 100 µM (inactive) | > 100 µM (inactive) | > 100 µM (inactive) | > 100 µM | > 100 µM (inactive) | > 100 µM (inactive) | > 100 µM (inactive) | > 100 µM (inactive) | > 100 µM (inactive) | > 100 µM (inactive) | > 100 µM (inactive) | > 100 µM (inactive) | > 100 µM (inactive) | > 100 µM (inactive) | > 100 µM (inactive) | > 100 µM (inactive) | > 100 µM (inactive) | – | > 100 µM (inactive) | > 100 µM (inactive)
6 | CC(C)(C)OC(=O)N1CCCC1C(=O)NCCNc1ccc(NCCNC(=O)C2CCCN2C(=O)OC(C)(C)C)c2c1C(=O)c1ccccc1C2=O (stereo not given) | 14.8 µM (inactive) | 27 µM (inactive) | 13 µM (inactive) | 13.9 µM | 13.7 µM (inactive) | 12.2 µM (inactive) | 12.4 µM (inactive) | 13.2 µM (inactive) | 14.1 µM (inactive) | 9.86 µM (inactive) | – | 14.3 µM (inactive) | 14.3 µM (inactive) | 13.8 µM (inactive) | 18.8 µM (inactive) | 11.6 µM (inactive) | – | > 100 µM (inactive) | 20.7 µM (inactive) | 19.7 µM (inactive)
7 | Cc1cc2nc3ccccc3n2c2ccccc12 | > 10 µM (inactive) | 1.81 µM (inactive) | > 10 µM (inactive) | > 10 µM | > 10 µM (inactive) | > 10 µM (inactive) | > 10 µM (inactive) | > 10 µM (inactive) | > 10 µM (inactive) | > 10 µM (inactive) | > 10 µM (inactive) | > 10 µM (inactive) | > 10 µM (inactive) | > 10 µM (inactive) | > 10 µM (inactive) | > 10 µM (inactive) | – | > 10 µM (inactive) | > 10 µM (inactive) | > 10 µM (inactive)
